Source: patent publication US12643935B2, “PD-L1 binding peptides” (UNIVERSITY OF SOUTHERN CALIFORNIA, priority 2020, dated 2026)

How the values were obtained:
[1] = target: T1, hPD-L1 (Homo sapiens, UniProt Q9NZQ7); assay: Radiolabeled [35S] peptide binding assay on glycosylated hPD-L1*; design: The hPD-L1* vector included amino acids A18-T239, an Avi Tag and a hexahistidine tag; hexahistidine tag; made in house; host or cells: Expi293F
Procedure: SPAM Peptide Selectively Binds to hPD-L1. SPAM was also tested for binding specificity towards mouse PD-L1 (mPD-L1) and human PD-L2 (hPD-L2) using radioactive binding assays. SPAM peptide mRNA was translated in vitro in the presence of [^35S]-methionine to generate [^35S]-labeled SPAM peptide.
[^35S]-labeled peptides were translated as described above by including 2 μCi labeled methionine (Perkin Elmer) per 10 pmol of template in the translation reaction. Each peptide was tested with a […] (for X9-library derived peptides) (SEQ ID NO: 11) or a […] (for X17-library derived peptides) (SEQ ID NO: 12) C-terminal sequence. […] The supernatant was removed and was counted. The beads were subsequently washed three times with 1 mL of blocking buffer and the washes were also counted. Finally, the beads were resuspended in 1 mL of blocking buffer and were counted separately. The ratio of the counts remaining on the beads to the total counts added to the binding reaction (the sum of the counts for supernatant, washes, and beads) was calculated to determine the percent bound.
Target sequence in this assay (Q9NZQ7 18-239): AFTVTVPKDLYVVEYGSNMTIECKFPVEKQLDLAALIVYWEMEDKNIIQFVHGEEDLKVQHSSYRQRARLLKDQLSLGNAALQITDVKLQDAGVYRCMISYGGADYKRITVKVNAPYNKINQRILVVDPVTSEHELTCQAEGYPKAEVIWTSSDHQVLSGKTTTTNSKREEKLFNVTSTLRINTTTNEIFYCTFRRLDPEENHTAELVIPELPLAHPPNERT

[2] = target: T1, hPD-L1; assay: Fluorescence polarization of ROX-labeled SPAM with glycosylated hPD-L1*; format: binding; design: The hPD-L1* vector included amino acids A18-T239, an Avi Tag and a hexahistidine tag; hexahistidine tag; made in house; host or cells: Expi293F; details: T=22° C., 100 nM ROX-SPAM, read-out: dissociation constant (KD) for hPD-L1*
Procedure: (§1) To evaluate the affinity of SPAM for hPD-L1 and hPD-L1*, we measured the KD by fluorescence polarization. […] The resulting values were plotted against the concentration of hPD-L1 or hPD-L1* and fit to a one-site saturation binding model with GraphPad Prism.
(§2) A stock solution of hPD-L1 or hPD-L1* with a 5 μM starting concentration was prepared and serially diluted to concentrations ranging from 5 μM to 2.4 nM. […] The fluorescence polarization of each sample was measured on a Synergy H4 Hybrid Multi-Mode Microplate Reader. Each measurement was carried out in triplicate and the mean value was calculated. The values were fit to a one-site saturation binding model in GraphPad Prism to obtain the corresponding equilibrium dissociation constants.
Target sequence in this assay (Q9NZQ7 18-239): as above

[3] = target: T2, hPD-L1 expressed on the surface of Chinese hamster ovary (CHO) cells (CHO-hPD-L1) (Homo sapiens, UniProt Q9NZQ7); assay: Antibody competition by flow cytometry on CHO-hPD-L1 cells; format: cell-based
T2 construct: expressed in transfected cells; host or cells: CHO
T2 sequence (Q9NZQ7 19-290): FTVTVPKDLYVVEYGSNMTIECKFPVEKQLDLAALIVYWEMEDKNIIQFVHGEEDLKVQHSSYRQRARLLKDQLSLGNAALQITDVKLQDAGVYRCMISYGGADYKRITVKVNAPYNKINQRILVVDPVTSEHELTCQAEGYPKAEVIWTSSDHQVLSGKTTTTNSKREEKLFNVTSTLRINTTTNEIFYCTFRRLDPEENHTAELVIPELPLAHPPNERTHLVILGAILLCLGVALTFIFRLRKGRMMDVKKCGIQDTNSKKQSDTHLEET
Excerpt: To do this, we measured SPAM peptide inhibition of anti-PD-L1 antibody binding to hPD-L1 expressed on the surface of Chinese hamster ovary (CHO) cells (CHO-hPD-L1). […] Cells were washed again and analyzed by flow cytometry (FIG. 5B-C).
Cells were then washed three times with cold serum free DMEM. Cells were subsequently processed by flow cytometry with a BD FACSCalibur system using the FL1 channel. FlowJo v10.1 was used to gate to the major population and median FL1 fluorescence reported.

[4] = target: T1, hPD-L1; assay: Fluorescence polarization of ROX-labeled SPAM with hPD-L1; format: binding; design: designed from A18 to T239 with a methionine added to the N-terminus; hexahistidine tag (C); made in house
Procedure: as §1, §2
Target sequence in this assay (Q9NZQ7 with tags, fused parts or gaps): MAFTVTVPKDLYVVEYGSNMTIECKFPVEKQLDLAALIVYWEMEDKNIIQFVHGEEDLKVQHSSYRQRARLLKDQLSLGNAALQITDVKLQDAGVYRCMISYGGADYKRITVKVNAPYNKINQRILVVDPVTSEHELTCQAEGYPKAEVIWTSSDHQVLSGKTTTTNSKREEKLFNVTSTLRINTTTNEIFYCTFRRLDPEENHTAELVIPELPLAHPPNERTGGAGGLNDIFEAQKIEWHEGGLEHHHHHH

[5] = target: T1, hPD-L1; assay: hPD-L1 binding of [35S]-SPAM after incubation in 25% human serum; format: in vitro ADME; design: designed from A18 to T239 with a methionine added to the N-terminus; hexahistidine tag (C); made in house; details: 37° C.
Procedure: We performed two complementary assays to determine what effect serum has on the SPAM/hPD-L1 interaction.
In a complementary test, SPAM was in vitro translated and [^35S]-labeled as described above. After purification as above, the [^35S]-labeled peptide-RNA fusions were incubated with DMEM media supplemented with 25% (v/v) single donor human plasma at 37° C. in triplicate for 0, 60, 120, 240 and 480 min. The binding of serum incubated peptides was then evaluated on hPD-L1 immobilized beads using 75 pmol hPD-L1 immobilized on streptavidin agarose beads (Thermo Fisher scientific) in DMEM supplemented with 25% Serum buffer and 0.02 mM biotin at 4° C. for 1 h. The supernatant was removed and was counted. The beads were subsequently washed three times with 1 mL of blocking buffer and the washes were also counted. Finally, the beads were resuspended in 1 mL of blocking buffer and were counted separately. The ratio of the counts remaining on the beads to the total counts added to the binding reaction (the sum of the counts for supernatant, washes, and beads) was calculated to determine the percent bound.
Target sequence in this assay (Q9NZQ7 with tags, fused parts or gaps): as above

SMILES: C#CC[C@H](NC(=O)CNC(=O)[C@H](CO)NC(=O)[C@H](C)NC(=O)[C@H](Cc1ccc(O)cc1)NC(=O)[C@H](Cc1c[nH]cn1)NC(=O)[C@H](CC(C)C)NC(=O)[C@@H](NC(=O)[C@H](Cc1c[nH]c2ccccc12)NC(=O)[C@H](Cc1ccccc1)NC(=O)[C@H](CCCCN)NC(=O)[C@H](CC(N)=O)NC(=O)[C@H](CC(C)C)NC(=O)[C@@H](NC(=O)[C@H](Cc1c[nH]cn1)NC(=O)[C@H](CC(=O)O)NC(=O)[C@H](CC(C)C)NC(=O)[C@H](Cc1ccccc1)NC(=O)[C@@H](NC(=O)[C@@H]1CCCN1C(=O)[C@@H](N)CCSC)[C@@H](C)CC)[C@@H](C)CC)[C@@H](C)CC)C(N)=O (stereo in doubt) [SPAM]
- [35S]-labeled peptide capture by hPD-L1* [1]: captured
- Kd [2]: 67 nM
- Fluorescein-Atezolizumab and Fluorescein-Avelumab binding to CHO-hPD-L1 after pre-incubation ([3]; pre-incubation 30 min 4° C., 0-20 μM, SPAM effect at 20 μM, 1 nM Atezolizumab, 10 nM Avelumab): significant decrease
- blocking of Fluorescein-16373 and Fluorescein-16377 in CHO-hPD-L1 cells ([3]; pre-treatment 0-20 μM, 50 nM antibody): blocking
- Kd ([4]; non-glycosylated hPD-L1, T=21° C., 100 nM ROX-SPAM, read-out: dissociation constant (KD) for hPD-L1): 119 nM
- Kd ([4]; range over glycosylated and non-glycosylated hPD-L1, read-out: KD for hPD-L1): 67 to 119 nM
- loss of binding in presence of human serum [5]: ~25%
- binding to immobilized hPD-L1 after serum incubation ([5]; eight hours): no further decrease
- binding to immobilized hPD-L1 after serum incubation ([5]; four hours): slight decrease
- binding to immobilized hPD-L1 after serum incubation ([5]; two hours): No decrease
